In patent US12403153B2, “Nicotinamide mononucleotide derivatives and use thereof in the treatment and prevention of a red blood cell disorder” (Nuvamid SA, priority 2020, dated 2025):

What was measured:
Assay type in all cases: in vivo
F-cells = assay: Percentage of F-cells using antibodies against fetal hemoglobin by FACS, blood of treated SCD mice; conditions: Townes S/S mice; for effect on proportion of circulating erythroid cells expressing fetal hemoglobin (conclusion): 185 mg/kg i.p. daily D0 to D15
Experimental: (§1) The aim of the present study was to evaluate, the effects of i.p. daily administration of compounds 001, 010 and 011 at 185 mg/kg as modulator of red blood cell sickling and fetal hemoglobin expression in erythroid cells and its potential role in therapy for sickle cell disease on mouse model of SCD.
(§2) Townes S/S mice on a 129/B6 mixed genetic background.
(§3) The powders of compounds 001, 010 and 011 (185 mg/kg) were dissolved in vehicle (the solution is used at room temperature for maximum 1 day). A fresh sample for each administration was prepared every day except the week-end (the solution is prepared on Saturday and is used on Saturday and Sunday).
(§4) In Townes S/S mice, mouse alpha- and beta-globin gene loci are deleted and replaced by human alpha- and beta-globin genes. When carrying two copies of the beta S allele, mice develop a human sickle disease phenotype with sickle-shaped red blood cells are seen in blood smears.
(§5) Group description: • Group 1: Vehicle (i.p.) • Group 2: compound 001 (185 mg/kg) • Group 3 compound 010 (185 mg/kg) • Group 4: compound 011 (185 mg/kg)
(§6) Mice were i.p treated with compounds 001, 010 and 011 during all the experiment (D0 to D15) once per day. Last injection occurred 24 hours before sacrifice.
(§7) Retro-orbital blood collection was performed at the inclusion D0 and at D5, D10 and D15 through facial vein bleeding.
(§8) Ex-vivo blood collected were assessed for percentage of F-cells using antibodies against fetal hemoglobin by FACS and reticulocyte counts using reticount by FACS. Red blood cells sickling was assessed under hypoxia.

reticulocytes = assay: Reticulocyte counts using Reticount by FACS, blood of treated SCD mice; conditions: Townes S/S mice, 185 mg/kg/d i.p.
Experimental: The aim of the present study was to evaluate, the effects of i.p. daily administration of compounds 001, 010 and 011 at 185 mg/kg as modulator of red blood cell sickling and fetal hemoglobin expression in erythroid cells and its potential role in therapy for sickle cell disease on mouse model of SCD. Townes S/S mice on a 129/B6 mixed genetic background. The powders of compounds 001, 010 and 011 (185 mg/kg) were dissolved in vehicle (the solution is used at room temperature for maximum 1 day). A fresh sample for each administration was prepared every day except the week-end (the solution is prepared on Saturday and is used on Saturday and Sunday). In Townes S/S mice, mouse alpha- and beta-globin gene loci are deleted and replaced by human alpha- and beta-globin genes. When carrying two copies of the beta S allele, mice develop a human sickle disease phenotype with sickle-shaped red blood cells are seen in blood smears. Group description: • Group 1: Vehicle (i.p.) • Group 2: compound 001 (185 mg/kg) • Group 3 compound 010 (185 mg/kg) • Group 4: compound 011 (185 mg/kg) Mice were i.p treated with compounds 001, 010 and 011 during all the experiment (D0 to D15) once per day. […] Ex-vivo blood collected were assessed for percentage of F-cells using antibodies against fetal hemoglobin by FACS and reticulocyte counts using reticount by FACS. Red blood cells sickling was assessed under hypoxia.

SS RBCs = assay: RBC sickling under hypoxia ex vivo, RBCs from treated SCD mice; conditions: Townes S/S mice; for effect on red blood cell sickling under hypoxia (conclusion): 185 mg/kg i.p. daily D0 to D15; for percentage of sickling cells at D0 / percentage of sickling cells after 15 days treatment: 185 mg/kg/d i.p., RBCs ex vivo 30 minutes hypoxia (1% Oz)
Experimental: as §1, §2, §3, §4, §5, §6, §7, §8
FIGS. 3, 4 and 5 show the ability of compounds 001 (FIG. 3), 010 (FIG. 4) and 011 (FIG. 5) to prevent sickling of SS RBCs at a 1% Oz. SS RBCs from treated mice and collected at D0, D5, D10 and D15 were submitted to hypoxia for 30 minutes in a hypoxic chamber (1% Oz). Percentage of sickling RBCs was then assessed for each time point with compounds 001, 010 and 011.

Townes S/S mice [1] = assay: Concentration of red blood cells in blood of SCD-model mice; conditions: for effect on concentration of RBC in blood: i.p. once per day D0 to D15 (compound 001 185 mg/kg, L-Gln 180 mg/kg), under normoxia and hypoxia, vs vehicle or L-Gln
Experimental: (§9) The purpose of this study is to evaluate the effects of i.p. daily administration of compound 001 at 185 mg/kg and/or L-Glutamine (L-Gln) at 180 mg/Kg on hematological parameters and RBC sickling. L-Gln has received approval by the FDA for the treatment of sickle cell disease (SCD) patients in the United States as it has been shown that L-Gln administration reduces the severity and frequency of VOCs. Townes S/S mice on a 129/B6 mixed genetic background aged 8-12 weeks. The powder of compound 001 (185 mg/kg) was dissolved in vehicle (the solution is used at room temperature for maximum 1 day). The powder of L-Glutamine (180 mg/kg) was dissolved in vehicle (the solution is used at room temperature for maximum 1 day). In Townes S/S mice, mouse alpha- and beta-globin gene loci are deleted and replaced by human genes coding for the alpha- and beta-globin. When carrying two copies of the beta S allele, mice develop a human sickle disease phenotype with sickle-shaped red blood cells are seen in blood smears. Group description: • Group 1: Vehicle PBS (i.p.) • Group 2: Compound 001 (185 mg/kg) • Group 3 L-Gln (180 mg/kg) • Group 4: Compound 001 (185 mg/kg)+L-Gln (180 mg/kg) Mice were i.p treated with Compound 001, L-Gln or the combination of compound 001+L-Gln during all the experiment (D0 to D15) once per day. Last injection occurred 24 hours before sacrifice. Retro-orbital blood collection was performed at the inclusion and at D15. Ex-vivo blood collected were assessed for blood parameters and RBC sickling ex vivo under normoxia (20% Oz) and hypoxia (1% Oz for 0.5 hour).

Townes S/S mice [2] = assay: Hemoglobin concentration in blood of SCD-model mice; conditions: for effect on hemoglobin concentration in blood: i.p. once per day D0 to D15 (compound 001 185 mg/kg, L-Gln 180 mg/kg), under normoxia and hypoxia, vs vehicle or L-Gln
Experimental: as §9

Townes S/S mice [3] = assay: Hematocrit percentage in blood of SCD-model mice; conditions: for effect on hematocrit percentage in blood: i.p. once per day D0 to D15 (compound 001 185 mg/kg, L-Gln 180 mg/kg), under normoxia and hypoxia, vs vehicle or L-Gln
Experimental: as §9, with “hour). […] III. CONCLUSION” for “hour).”

[4] = 185 mg/kg/d i.p., hypoxia (1% Oz for 0.5 hour) vs normoxia

NC(=O)c1ccc[n+]([C@@H]2O[C@H](COP(=O)([O-])O)[C@@H](O)[C@H]2O)c1 (stereo in doubt) [Compound 001, NMN]
effect on proportion of circulating erythroid cells expressing fetal hemoglobin (conclusion) (F-cells): increase the proportion of circulating erythroid cells expressing fetal hemoglobin
mean F-cells after treatment (F-cells; 185 mg/kg/d i.p., over the 15 days treatment): 8%
mean F-cells, starting value (F-cells; 185 mg/kg/d i.p., value before the 15 days treatment): less than 5%
percentage of reticulocytes after treatment (reticulocytes; over the 15 days treatment): 30%
percentage of reticulocytes, starting value (reticulocytes; value before the 15 days treatment): 70%
effect on red blood cell sickling under hypoxia (conclusion) (SS RBCs): reduce red blood cell sickling under hypoxia
percentage of sickling cells at D0 (SS RBCs): 40%
percentage of sickling cells after 15 days treatment (SS RBCs): less than 10%
effect of hypoxia on RBC in blood of treated mice (Townes S/S mice [1]; [4]): did not result in a decrease
effect on concentration of RBC in blood (Townes S/S mice [1]): significant increase
effect of hypoxia on hemoglobin in blood of treated mice (Townes S/S mice [2]; [4]): did not result in a decrease
effect on hemoglobin concentration in blood (Townes S/S mice [2]): significant increase
effect of hypoxia on hematocrit percentage in blood of treated mice (Townes S/S mice [3]; [4]): did not result in a decrease
effect on hematocrit percentage in blood (Townes S/S mice [3]): significant increase

NC(=O)CC[C@H](N)C(=O)O [L-Gln, L-Glutamine, reference compound]
effect on concentration of RBC in blood (Townes S/S mice [1]): did not affect
effect on hemoglobin concentration in blood (Townes S/S mice [2]): did not affect
effect on hematocrit percentage in blood (Townes S/S mice [3]): did not affect

α,α-diNMN [Compound 011]
effect on proportion of circulating erythroid cells expressing fetal hemoglobin (conclusion) (F-cells): increase the proportion of circulating erythroid cells expressing fetal hemoglobin
effect on red blood cell sickling under hypoxia (conclusion) (SS RBCs): reduce red blood cell sickling under hypoxia
percentage of sickling cells at D0 (SS RBCs): 31%
percentage of sickling cells after 15 days treatment (SS RBCs): 20%

α,β-diNMN [Compound 010]
effect on proportion of circulating erythroid cells expressing fetal hemoglobin (conclusion) (F-cells): increase the proportion of circulating erythroid cells expressing fetal hemoglobin
effect on red blood cell sickling under hypoxia (conclusion) (SS RBCs): reduce red blood cell sickling under hypoxia
percentage of sickling cells at D0 (SS RBCs): 32%
percentage of sickling cells after 15 days treatment (SS RBCs): less than 15%
